In paper PMC4492759, “Pharmacological profiling of the hemodynamic effects of cannabinoid ligands: a combined in vitro and in vivo approach” (Pharmacology Research & Perspectives, 2015):

Legend:
[1] = tested on: anesthetized Sprague–Dawley (SD) rats; assay: Hemodynamic responses (MABP, HR) in anesthetized normotensive rats; format: in vivo, rat; settings: O-1602 5–100 ng kg−1 i.v.
Procedure: (§1) All experiments performed under terminal anesthesia were carried out following approval by Robert Gordon University Animal Ethics Panel. Anesthesia was induced in male SD rats (200–300 g) by sodium pentobarbital [60 mg kg^−1 intraperitoneal (i.p.) injection]. Male/female WT and GPR55^−/− mice (25–35 g) were anesthetized with a mixture of ketamine (120 mg kg^−1) and xylazine (16 mg kg^−1) via i.p. injection. For both species the trachea was cannulated to allow artificial respiration with room air when required (54 strokes min^−1 and tidal volume 1.5 mL 100 g^−1 for rats; 120 strokes min^−1 and tidal volume 100 μL 10 g^−1 for mice) and the left carotid artery and right jugular vein were cannulated for the measurement of arterial BP (MLT844 Physiological Pressure Transducer; AD Instruments, Oxford, UK) and drug administration, respectively. Core temperature was monitored continuously and maintained at 37–38°C with the aid of a Vetcare heated pad (Harvard Apparatus Ltd., Boston, Massachusetts, USA). Anesthesia was monitored by foot pinch reflex and maintained throughout by administration of additional doses of anesthetic (rats: 3–4 mg kg^−1 of sodium pentobarbital salt i.v.; mice: 50 μL 25 g^−1of ketamine/xylazine i.p.) every 40 min, or as required. […] Heart rate (HR) was calculated from the ECG and recorded throughout the entire experimental period. After a stabilization period of approximately 15 min dose–response experiments were carried out as described below.
(§2) As a preliminary assessment of the effects of ACEA on arterial BP, a single bolus intravenous dose (3 mg kg^−1; selected from the literature as a dose known to produce a depressor response) was given to anesthetized rats. […] The time interval between drug administrations was 10–15 min to allow BP values to return to predrug values.

[2] = tested on: rat GPR55; assay: [35S]-GTPγS binding, membranes of HEK293s cells transfected with rat GPR55; format: biochemical; settings: GTPγS binding, GPR55 activation
Procedure: (§3) HEK293s cells were transiently transfected with cDNA encoding rat or mouse CB1 or GPR55 and membranes were prepared as previously described (Ryberg et al. [2007]). In short, agonist activities in [^35S]-GTPγS binding assays were determined by the addition of ligand at 30°C for 45 min in membrane buffer [50 mmol/L NaCl, 5 mmol/L MgCl2, 0.5 mmol/L EDTA, 25 mmol/L HEPES (all Sigma, Gillingham, Dorset, UK); pH 7.4] containing 0.05 μg μL^−1 of membrane protein with 0.01% BSA, 25 μmol/L guanosine 5′-diphosphate (GDP), 100 μmol/L dithiothreitol (DTT), and 0.53 nmol/L [^35S]GTPγS (PerkinElmer) in a final volume of 200 μL. Antagonist assays were performed similarly, with the addition of an EC80 concentration of CP55940 as a nonselective CB1/CB2 agonist in conjunction with the ligand to be tested. Nonspecific binding was determined in the presence of 20 μmol/L unlabeled GTPγS. The reaction was terminated by addition of ice-cold wash buffer (50 mmol/L Tris-HCl, 5 mmol/L MgCl2, 50 mmol/L NaCl; pH 7.4) followed by rapid filtration under vacuum through 96-well B-glass fiber filter plates (PerkinElmer, Waltham, Massachusetts, USA) using a Biomek FX (Beckman Coulter, Bromma, Sweden). The filter plates were dried (30 min at 50°C) before scintillation liquid (PerkinElmer) was added onto the filters and the bound radioactivity was determined using a scintillation counter (Wallac). Data were fitted with a four-parameter logistic fit using the equation y = A + (B − A)/1 + ((C/x)^D), where A is no activation, B is full activation, C is the EC50, and D is the Hill slope. All data were based on at least three independent experiments.

[3] = biological target: T1, rat GPR55 (Rattus norvegicus, UniProt F1MAK4); assay: as above; format: biochemical; settings: agonist mode; mean ± SEM, at least three experiments; read-out: GPR55 EC50, Rat
T1 construct: expressed in transfected cells; host or cells: HEK293s, transient transfection; membranes prepared
T1 sequence (F1MAK4 1-319): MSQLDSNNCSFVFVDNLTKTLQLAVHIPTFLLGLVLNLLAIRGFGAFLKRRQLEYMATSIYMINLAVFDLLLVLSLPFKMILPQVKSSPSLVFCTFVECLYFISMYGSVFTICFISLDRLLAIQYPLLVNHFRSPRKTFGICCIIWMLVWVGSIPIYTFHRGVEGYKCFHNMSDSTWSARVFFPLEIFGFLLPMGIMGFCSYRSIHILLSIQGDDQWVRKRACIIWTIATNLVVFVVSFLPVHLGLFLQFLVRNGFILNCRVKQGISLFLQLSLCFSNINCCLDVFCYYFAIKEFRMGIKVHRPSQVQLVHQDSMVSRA
Procedure: as §3

[4] = tested on: anesthetized WT and GPR55−/− mice; assay: Hemodynamic responses (MABP, HR) in anesthetized WT and GPR55−/− mice; format: in vivo, mouse; settings: O-1602 5–100 ng kg−1 i.v.; WT mice
Procedure: as §1, §2

C=C(C)[C@@H]1CCC(C)=C[C@H]1c1c(C)cc(O)cc1O [O-1602]
changes in MABP or HR over and above vehicle [1]: did not produce any changes
potency at GPR55 relative to that of ACEA [2]: approximately 5 times
EC50 [3]: 20 ± 3 nM
changes in MABP or HR over and above vehicle [4]: did not produce any changes
